{"source": "patent US12227512B2", "about": "“Benzimidazoles and methods of using same” (priority 2019, dated 2025)", "key": {"Zika MR766 [1]": {"tested_on": "Zika MR766", "test": "In vitro antiviral screening, Visual (Virus yield reduction)", "settings": "Vero 76"}, "Zika MR766 [2]": {"tested_on": "Zika MR766", "test": "In vitro antiviral screening, Neutral Red (Cytopathic effect)", "settings": "Vero 76"}, "[3]": {"test": "Mouse PK evaluation, plasma, IV", "settings": "CD-1 mice; for concentration at 0.083 h / concentration at 0.25 h / concentration at 0.5 h / concentration at 1 h / concentration at 2 h / concentration at 4 h / concentration at 8 h / concentration at 24 h / AUC(0-inf) / AUC(0-t) / MRT inf / half-life: CD-1, mouse, plasma, 3 mg/kg; for concentration at 0.083 h / concentration at 0.25 h / concentration at 0.5 h / concentration at 1 h / concentration at 2 h / concentration at 4 h / concentration at 8 h / concentration at 24 h: intravenous, Plasma concentration; for AUC(0-inf) / AUC(0-t) / MRT inf / half-life: iv; for AUC(0-inf): AUCInf; for AUC(0-t): AUClast; for MRT inf: MRTInf_obs"}, "[4]": {"test": "Neutral Red (Toxicity) of the antiviral screening", "settings": "African green monkey, Vero 76 cells"}, "Vero 76": {"tested_on": "Vero 76", "test": "Neutral Red (Toxicity) of the antiviral screening", "settings": "Assay No. 3; Neutral Red (Cytopathic effect/Toxicity) line"}, "[5]": {"tested_on": "Dengue virus 2 New Guinea C", "test": "In vitro antiviral screening, Neutral Red (Cytopathic effect)", "settings": "Huh7; for SI50: Neutral Red (Cytopathic effect/Toxicity); for EC50: Dengue virus, Neutral Red (Cytopathic effect)"}, "[6]": {"test": "Neutral Red (Toxicity) of the antiviral screening", "settings": "human, Huh7 cells"}, "[7]": {"tested_on": "Dengue virus 2 New Guinea C", "test": "In vitro antiviral screening, Visual (Virus yield reduction)", "settings": "Huh7; for SI90: Visual (Virus yield reduction)/Neutral Red (Toxicity); for EC90: Dengue virus, Visual (Virus yield reduction)"}}, "data": [{"smiles": "CN(C)CCCn1c(N)nc2ccc3c(c21)CC(CO)O3", "note": "(centres unmarked) [DD041]", "values": [{"measurement": "SI90", "setting": "Zika MR766 [1]; Assay No. 3, Visual (Virus yield reduction)/Neutral Red (Toxicity)", "value": ">5.9"}, {"measurement": "EC90", "setting": "Zika MR766 [1]; Zika virus", "value": 17, "unit": "µM"}, {"measurement": "SI50", "setting": "Zika MR766 [2]; Assay No. 3, Neutral Red (Cytopathic effect/Toxicity)", "value": ">9.1"}, {"measurement": "EC50", "setting": "Zika MR766 [2]; Zika virus", "value": 11, "unit": "µM"}, {"measurement": "AUC_%Extrap_obs, Mean", "setting": "[3]; 3 mg/kg IV", "value": 1.88, "unit": "%"}, {"measurement": "AUC_%Extrap_obs, Mouse 1", "setting": "[3]; 3 mg/kg IV", "value": 3.73, "unit": "%"}, {"measurement": "AUC_%Extrap_obs, Mouse 2", "setting": "[3]; 3 mg/kg IV", "value": 0.927, "unit": "%"}, {"measurement": "AUC_%Extrap_obs, Mouse 3", "setting": "[3]; 3 mg/kg IV", "value": 0.993, "unit": "%"}, {"measurement": "AUClast/D, Mean", "setting": "[3]; 3 mg/kg IV", "value": 262}, {"measurement": "AUClast/D, Mouse 1", "setting": "[3]; 3 mg/kg IV", "value": 261}, {"measurement": "AUClast/D, Mouse 2", "setting": "[3]; 3 mg/kg IV", "value": 251}, {"measurement": "AUClast/D, Mouse 3", "setting": "[3]; 3 mg/kg IV", "value": 274}, {"measurement": "C0, Mean", "setting": "[3]; 3 mg/kg IV", "value": 1959, "unit": "ng/mL"}, {"measurement": "C0, Mouse 1", "setting": "[3]; 3 mg/kg IV", "value": 2033, "unit": "ng/mL"}, {"measurement": "C0, Mouse 2", "setting": "[3]; 3 mg/kg IV", "value": 1738, "unit": "ng/mL"}, {"measurement": "C0, Mouse 3", "setting": "[3]; 3 mg/kg IV", "value": 2107, "unit": "ng/mL"}, {"measurement": "Cl_obs, Mean", "setting": "[3]; 3 mg/kg IV", "value": 62.5, "unit": "mL/min/kg"}, {"measurement": "Cl_obs, Mouse 1", "setting": "[3]; 3 mg/kg IV", "value": 61.4, "unit": "mL/min/kg"}, {"measurement": "Cl_obs, Mouse 2", "setting": "[3]; 3 mg/kg IV", "value": 65.8, "unit": "mL/min/kg"}, {"measurement": "Cl_obs, Mouse 3", "setting": "[3]; 3 mg/kg IV", "value": 60.3, "unit": "mL/min/kg"}, {"measurement": "Vss_obs, Mean", "setting": "[3]; 3 mg/kg IV", "value": 7.55, "unit": "L/kg"}, {"measurement": "Vss_obs, Mouse 1", "setting": "[3]; 3 mg/kg IV", "value": 5.80, "unit": "L/kg"}, {"measurement": "Vss_obs, Mouse 2", "setting": "[3]; 3 mg/kg IV", "value": 8.48, "unit": "L/kg"}, {"measurement": "Vss_obs, Mouse 3", "setting": "[3]; 3 mg/kg IV", "value": 8.37, "unit": "L/kg"}, {"measurement": "Plasma concentration, Mouse 1", "setting": "[3]; 3 mg/kg IV, 24 h", "value": "BLOQ"}, {"measurement": "concentration at 0.083 h", "setting": "[3]; Mean, 3 mg/kg IV", "value": 1170, "unit": "ng/mL"}, {"measurement": "concentration at 0.25 h", "setting": "[3]; Mean, 3 mg/kg IV", "value": 417, "unit": "ng/mL"}, {"measurement": "concentration at 0.5 h", "setting": "[3]; Mean, 3 mg/kg IV", "value": 281, "unit": "ng/mL"}, {"measurement": "concentration at 1 h", "setting": "[3]; Mean, 3 mg/kg IV", "value": 161, "unit": "ng/mL"}, {"measurement": "concentration at 2 h", "setting": "[3]; Mean, 3 mg/kg IV", "value": 65.7, "unit": "ng/mL"}, {"measurement": "concentration at 4 h", "setting": "[3]; Mean, 3 mg/kg IV", "value": 27.4, "unit": "ng/mL"}, {"measurement": "concentration at 8 h", "setting": "[3]; Mean, 3 mg/kg IV", "value": 8.4, "unit": "ng/mL"}, {"measurement": "concentration at 24 h", "setting": "[3]; Mean, 3 mg/kg IV, 24 h", "value": 1.11, "unit": "ng/mL"}, {"measurement": "concentration at 0.083 h", "setting": "[3]; Mouse 1, 3 mg/kg IV", "value": 1250, "unit": "ng/mL"}, {"measurement": "concentration at 0.25 h", "setting": "[3]; Mouse 1, 3 mg/kg IV", "value": 470, "unit": "ng/mL"}, {"measurement": "concentration at 0.5 h", "setting": "[3]; Mouse 1, 3 mg/kg IV", "value": 322, "unit": "ng/mL"}, {"measurement": "concentration at 1 h", "setting": "[3]; Mouse 1, 3 mg/kg IV", "value": 145, "unit": "ng/mL"}, {"measurement": "concentration at 2 h", "setting": "[3]; Mouse 1, 3 mg/kg IV", "value": 67.5, "unit": "ng/mL"}, {"measurement": "concentration at 4 h", "setting": "[3]; Mouse 1, 3 mg/kg IV", "value": 31.6, "unit": "ng/mL"}, {"measurement": "concentration at 8 h", "setting": "[3]; Mouse 1, 3 mg/kg IV", "value": 9.69, "unit": "ng/mL"}, {"measurement": "concentration at 0.083 h", "setting": "[3]; Mouse 2, 3 mg/kg IV", "value": 1070, "unit": "ng/mL"}, {"measurement": "concentration at 0.25 h", "setting": "[3]; Mouse 2, 3 mg/kg IV", "value": 403, "unit": "ng/mL"}, {"measurement": "concentration at 0.5 h", "setting": "[3]; Mouse 2, 3 mg/kg IV", "value": 255, "unit": "ng/mL"}, {"measurement": "concentration at 1 h", "setting": "[3]; Mouse 2, 3 mg/kg IV", "value": 152, "unit": "ng/mL"}, {"measurement": "concentration at 2 h", "setting": "[3]; Mouse 2, 3 mg/kg IV", "value": 66.4, "unit": "ng/mL"}, {"measurement": "concentration at 4 h", "setting": "[3]; Mouse 2, 3 mg/kg IV", "value": 28.5, "unit": "ng/mL"}, {"measurement": "concentration at 8 h", "setting": "[3]; Mouse 2, 3 mg/kg IV", "value": 6, "unit": "ng/mL"}, {"measurement": "concentration at 24 h", "setting": "[3]; Mouse 2, 3 mg/kg IV, 24 h", "value": 1.05, "unit": "ng/mL"}, {"measurement": "concentration at 0.083 h", "setting": "[3]; Mouse 3, 3 mg/kg IV", "value": 1190, "unit": "ng/mL"}, {"measurement": "concentration at 0.25 h", "setting": "[3]; Mouse 3, 3 mg/kg IV", "value": 377, "unit": "ng/mL"}, {"measurement": "concentration at 0.5 h", "setting": "[3]; Mouse 3, 3 mg/kg IV", "value": 267, "unit": "ng/mL"}, {"measurement": "concentration at 1 h", "setting": "[3]; Mouse 3, 3 mg/kg IV", "value": 187, "unit": "ng/mL"}, {"measurement": "concentration at 2 h", "setting": "[3]; Mouse 3, 3 mg/kg IV", "value": 63.3, "unit": "ng/mL"}, {"measurement": "concentration at 4 h", "setting": "[3]; Mouse 3, 3 mg/kg IV", "value": 22, "unit": "ng/mL"}, {"measurement": "concentration at 8 h", "setting": "[3]; Mouse 3, 3 mg/kg IV", "value": 9.51, "unit": "ng/mL"}, {"measurement": "concentration at 24 h", "setting": "[3]; Mouse 3, 3 mg/kg IV, 24 h", "value": 1.17, "unit": "ng/mL"}, {"measurement": "AUC(0-inf)", "setting": "[3]; Mean, 3 mg/kg IV", "value": 801, "unit": "ng·h/mL"}, {"measurement": "AUC(0-inf)", "setting": "[3]; Mouse 1, 3 mg/kg IV", "value": 814, "unit": "ng·h/mL"}, {"measurement": "AUC(0-inf)", "setting": "[3]; Mouse 2, 3 mg/kg IV", "value": 760, "unit": "ng·h/mL"}, {"measurement": "AUC(0-inf)", "setting": "[3]; Mouse 3, 3 mg/kg IV", "value": 829, "unit": "ng·h/mL"}, {"measurement": "AUC(0-t)", "setting": "[3]; Mean, 3 mg/kg IV", "value": 786, "unit": "ng·h/mL"}, {"measurement": "AUC(0-t)", "setting": "[3]; Mouse 1, 3 mg/kg IV", "value": 784, "unit": "ng·h/mL"}, {"measurement": "AUC(0-t)", "setting": "[3]; Mouse 2, 3 mg/kg IV", "value": 753, "unit": "ng·h/mL"}, {"measurement": "AUC(0-t)", "setting": "[3]; Mouse 3, 3 mg/kg IV", "value": 821, "unit": "ng·h/mL"}, {"measurement": "MRT inf", "setting": "[3]; Mean, 3 mg/kg IV", "value": 2.01, "unit": "h"}, {"measurement": "MRT inf", "setting": "[3]; Mouse 1, 3 mg/kg IV", "value": 1.57, "unit": "h"}, {"measurement": "MRT inf", "setting": "[3]; Mouse 2, 3 mg/kg IV", "value": 2.15, "unit": "h"}, {"measurement": "MRT inf", "setting": "[3]; Mouse 3, 3 mg/kg IV", "value": 2.31, "unit": "h"}, {"measurement": "half-life", "setting": "[3]; T1/2, Mean, 3 mg/kg IV", "value": 3.9, "unit": "h"}, {"measurement": "half-life", "setting": "[3]; T1/2, Mouse 1, 3 mg/kg IV", "value": 2.17, "unit": "h"}, {"measurement": "half-life", "setting": "[3]; T1/2, Mouse 2, 3 mg/kg IV", "value": 4.65, "unit": "h"}, {"measurement": "half-life", "setting": "[3]; T1/2, Mouse 3, 3 mg/kg IV", "value": 4.87, "unit": "h"}, {"measurement": "CC50", "setting": "[4]", "value": "> 100", "unit": "µM"}, {"measurement": "CC50", "setting": "Vero 76", "value": "> 100", "unit": "µM"}, {"measurement": "SI50", "setting": "[5]; Assay No. 1", "value": ">15"}, {"measurement": "SI50", "setting": "[5]; Assay No. 2", "value": 4.6}, {"measurement": "EC50", "setting": "[5]; Huh-7, Assay No. 1", "value": 6.7, "unit": "µM"}, {"measurement": "EC50", "setting": "[5]; Huh-7, Assay No. 2", "value": 5.6, "unit": "µM"}, {"measurement": "CC50", "setting": "[6]; CC50, Assay No. 1, Neutral Red (Cytopathic effect/Toxicity) line", "value": "> 100", "unit": "µM"}, {"measurement": "CC50", "setting": "[6]; CC50, Assay No. 1, Neutral Red (Toxicity), line of the virus yield reduction assay", "value": "> 100", "unit": "µM"}, {"measurement": "CC50", "setting": "[6]; CC50, Assay No. 2, Neutral Red (Cytopathic effect/Toxicity) line", "value": 26, "unit": "µM"}, {"measurement": "CC50", "setting": "[6]; CC50, Assay No. 2, Neutral Red (Toxicity), line of the virus yield reduction assay", "value": 26, "unit": "µM"}, {"measurement": "SI90", "setting": "[7]; Assay No. 1", "value": ">10"}, {"measurement": "SI90", "setting": "[7]; Assay No. 2", "value": 14}, {"measurement": "EC90", "setting": "[7]; Huh-7, Assay No. 1", "value": 10, "unit": "µM"}, {"measurement": "EC90", "setting": "[7]; Huh-7, Assay No. 2", "value": 1.83, "unit": "µM"}]}]}
